Measurements published in patent US20110230497A1, “BIOLOGICALLY ACTIVE AMIDES” (H. Lundbeck A/S, priority 2008, published 2011).

Legend:
[1] = target: T1, NPY Y5 receptor (Homo sapiens, UniProt Q15761); test: Radioligand (125I-PYY) binding to membrane suspensions, cloned human NPY Y5 receptor; set-up: expressed in transfected cells; host or cells: LM(tk-) cells (typically); details: 125I-PYY competition binding, membranes of transfected cells; read-out: Ki (nM), binding affinity of selected compounds
T1 sequence (Q15761 1-445): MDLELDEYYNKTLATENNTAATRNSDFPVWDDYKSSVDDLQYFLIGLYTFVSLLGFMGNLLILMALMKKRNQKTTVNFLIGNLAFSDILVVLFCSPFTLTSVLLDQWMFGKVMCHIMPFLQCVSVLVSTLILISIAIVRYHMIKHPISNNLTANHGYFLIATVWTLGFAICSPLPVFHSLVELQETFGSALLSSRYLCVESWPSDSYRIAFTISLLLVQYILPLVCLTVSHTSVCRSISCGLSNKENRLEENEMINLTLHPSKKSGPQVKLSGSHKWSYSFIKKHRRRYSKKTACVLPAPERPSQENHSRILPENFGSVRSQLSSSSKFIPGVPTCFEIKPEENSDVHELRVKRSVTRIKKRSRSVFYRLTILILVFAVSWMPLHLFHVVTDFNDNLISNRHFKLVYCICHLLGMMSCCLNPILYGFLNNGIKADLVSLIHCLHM
Experimental: The pharmacological properties of the compounds of the present invention were evaluated at the cloned human NPY Y5 receptor using the protocols disclosed in U.S. Pat. No. 6,124,331, the contents of which are hereby incorporated by reference, or in an assay as similarly described therein for NPY Y5 binding activity. The procedures for cell culture, transient transfection and membrane harvest, which are well known in the art, are described therein
Briefly, membrane suspensions from transfected cells (typically expressed in LM(tk-) cells) and ^125I-PYY radioligand (PerkinElmer, Waltham, Mass.) were diluted in binding buffer supplemented with 0.1% bovine serum albumin to yield an optimal membrane protein concentration so that ^125I-PYY bound by membranes in the assay was less than 10% of ^125I-PYY delivered to the sample (100,000 dpm/sample=0.08 nM for competition binding assays). Test compounds were diluted to desired concentrations with supplemented binding buffer in the presence of 30% DMSO. The binding assay was performed in 96-well polypropylene microtiter plates by mixing ^125I-PYY, test compound (25 μL), and finally, membrane suspensions (200 μL). Final DMSO=3%. Samples were incubated in at room temperature for about 120 min. Incubations were terminated by filtration over Whatman GF/C filters (pre-coated with 1% polyethyleneimine and air-dried before use), followed by washing with ice-cold binding buffer. Filter-trapped membranes were impregnated with MeltiLex solid scintillant (Wallac, Turku, Finland) and counted for ^125I-PYY in a Wallac MicroBeta Trilux. Non-specific binding was defined by 1000 nM porcine NPY. Specific binding was typically 80%; most non-specific binding was associated with the filter. Binding data were analyzed using nonlinear regression and statistical techniques available in the GraphPAD Prism package (San Diego, Calif.).

[2] = target: T1, NPY Y5 receptor; test: NPY Y5-dependent inhibition of forskolin-stimulated cAMP accumulation; format: cell-based; set-up: expressed in transfected cells; details: effect on agonist (NPY) activity, cAMP HTRF
Experimental: Stably transfected cells were seeded into 96-well microtiter plates and cultured until confluent. To reduce the potential for receptor desensitization, the serum component of the media was reduced to 1.5% for 4 to 16 hours before the assay. Cells were washed in […], or HBS (150 mM NaCl, 20 mM HEPES, 1 mM CaCl2, 5 mM KCl, 1 mM MgCl2, and 10 mM glucose) supplemented with 0.1% bovine serum albumin plus 100 uM IBMX. Test compounds were diluted to desired concentrations with assay buffer in the presence of 10% DMSO, then transferred to the cell plate and allowed to incubate for 20 min at 37° C. in 5% CO2 (final DMSO=1%). Cells were then stimulated with NPY (up to 10 uM) for a period of 5 min, followed by forskolin (10 uM) for another 5 min. The assay was then terminated and intracellular cAMP was quantified by with highthroughput time-resolved fluorometry (HTRF kit from CisBio, Bedford, Mass.). The effect of the test compound on agonist (NPY) activity were analyzed using nonlinear regression and statistical techniques available in the GraphPAD Prism package (San Diego, Calif.).

Compound	Ki [1] [nM]	function at the NPY Y5 receptor [2]
CC(=O)N1CCN(CC(=O)Nc2ccc(-c3cc(F)cc(F)c3)cn2)CC1 [Example 1a, 2-(4-Acetyl-piperazin-1-yl)-N-[5-(3,5-difluoro-phenyl)-pyridin-2-yl]-acetamide]	220	–
CC(=O)N1CCN(CC(=O)Nc2ccc(-c3cc(F)cc(F)c3)cn2)C[C@@H]1C [Example 1e, 2-((S)-4-Acetyl-3-methyl-piperazin-1-yl)-N-[5-(3,5-difluoro-phenyl)-pyridin-2-yl]-acetamide]	120	–
CC(=O)N1CCC(CC(=O)Nc2ccc(-c3cc(F)cc(F)c3)cn2)CC1 [Example 2a, 2-(1-Acetyl-piperidin-4-yl)-N-[5-(3,5-difluoro-phenyl)-pyridin-2-yl]-acetamide]	46	antagonists
CS(=O)(=O)N1CCC(CC(=O)Nc2ccc(-c3cc(F)cc(F)c3)nc2)CC1 [Example 2aj, N-[6-(3,5-Difluoro-phenyl)-pyridin-3-yl]-2-(1-methanesulfonyl-piperidin-4-yl)-acetamide]	28	–
O=C(C[C@H]1CCN2C(=O)CC[C@H]2C1)Nc1ccc(-c2cc(F)cc(F)c2)cn1 [Example 3a]	36	–
O=C(C[C@H]1CCN2C(=O)OC[C@H]2C1)Nc1ccn(-c2ccc(Cl)cc2F)n1 [Example 3cc, N-[1-(4-Chloro-2-fluoro-phenyl)-1H-pyrazol-3-yl]-2-((7S,8aR)-3-oxo-hexahydro-oxazolo[3,4-a]pyridin-7-yl)-acetamide]	8	–
O=C(C[C@H]1CCN2C(=O)OC[C@H]2C1)Nc1cc(-c2cccc(C(F)(F)F)c2)no1 [Example 3hh, 2-((7S,8aR)-3-oxo-hexahydro-oxazolo[3,4-a]pyridin-7-yl)-N-[3-(3-trifluoromethyl-phenyl)-isoxazol-5-yl]-acetamide]	39	–
CC1(C)OC(=O)N2CCC(CC(=O)Nc3ccn(-c4ccccc4F)n3)CC21 (centres unmarked) [Example 3i, 2-(1,1-Dimethyl-3-oxo-hexahydro-oxazolo[3,4-a]pyridin-7-yl)-N-[1-(2-fluoro-phenyl)-1H-pyrazol-3-yl]-acetamide]	50	–
O=C(CC1CCN2C(=O)OCC2C1)Nc1cnc(-c2cc(F)cc(F)c2)cn1 (centres unmarked) [Example 3l, N-[5-(3,5-Difluoro-phenyl)-pyrazin-2-yl]-2-(3-oxo-hexahydro-oxazolo[3,4-a]pyridin-7-yl)-acetamide]	25	–
O=C(C[C@H]1CCN2C(=O)OC[C@H]2C1)Nc1ccc(-c2cc(F)cc(F)c2)cn1 [Example 3o, N-[5-(3,5-Difluoro-phenyl)-pyridin-2-yl]-2-((7S,8aR)-3-oxo-hexahydro-oxazolo[3,4-a]pyridin-7-yl)-acetamide]	17	–
CC(=O)N1CCC(C(C)(C)C(=O)Nc2ccc(-c3cc(F)cc(F)c3)cn2)CC1 [Example 4a, 2-(1-Acetyl-piperidin-4-yl)-N-[5-(3,5-difluoro-phenyl)-pyridin-2-yl]-isobutyramide]	66	antagonists
CC(=O)N1CCC(CC(=O)Nc2ccc(-c3ccccc3)cc2)CC1 [Example 5a, 2-(1-Acetyl-piperidin-4-yl)-N-biphenyl-4-yl-acetamide]	120	–
O=C(C1CCC1)N1CCC(C2(C(=O)Nc3ccc(-c4cc(F)cc(F)c4)cc3)CC2)CC1 [Example 5j]	2.7	–
O=C(c1ccccn1)N1CCC(C2(C(=O)Nc3ccc(-c4cc(F)cc(F)c4)cc3)CC2)CC1 [Example 5m]	14	–
Cn1nccc1C(=O)N1CCC(C(C)(C)C(=O)Nc2ccc(-c3cc(F)cc(F)c3)cn2)CC1 [Example 5q, N-[5-(3,5-Difluoro-phenyl)-pyridin-2-yl]-2-[1-(2-methyl-2H-pyrazole-3-carbonyl)-piperidin-4-yl]-isobutyramide]	570	–
